According to patent US7127357B1, “Crystal structure of WW domains and methods of use thereof” (The Salk Institute for Biological Studies, priority 2000, dated 2006):
Non-standard residues stand in square brackets, D forms with d. Residues, ends and D or L forms follow the SMILES beside them. *: point of attachment. X1 = CN(C)c1ccc2c(c1)Oc1cc(N(C)C)ccc1C21OC(=O)c2cc(NC(=S)*)ccc21; pT = C[C@@H](OP(=O)(O)O)[C@H](N)C(=O)O; pS = N[C@@H](COP(=O)(O)O)C(=O)O

Experiments:
[1] = biological target: T1, Pin1 PPIase domain (Homo sapiens, UniProt Q13526); experiment: Fluorescence anisotropy binding of rhodamine-labeled peptides to isolated Pin1 PPIase domain
T1 construct: the PPIase domain includes residues 50–163 of Pin1
Experimental: Protein purification and crystallography. His8-tagged Pin1 was expressed and purified by Ni^+2-chelation chromatography, the histidine tag was removed by thrombin digestion, and the protein purified as described in Ranganathan et al., Cell 89:875–886, 1997. All site-directed mutants were constructed using the QuikChange (Stratagene) protocol and purified like wild type Pin1. Crystals of the Pin1-YpSPTpSPS complex were grown in hanging drops at 4° C. by mixing 1.0 μl of the Pin1-peptide complex with 1.0 μl of a reservoir solution containing 100 mM MOPSO-Na^+ (pH 7.0), 28% (v/v) PEG 8000, 2 mM DTT, stabilized in 100 mM MOPSO-Na^+ (pH 7.0), 25% (v/v) PEG 8000, 20% (v/v) glycerol, 1 mM DTT, and rapidly frozen in a 100 K stream of nitrogen gas. A native data set extending to 1.84 Å resolution was collected at the Stanford Synchrotron Radiation Laboratory, beamline 9-1 (λ=0.98 Å). Data were processed with DENZO and scaled with […] (Otwinowski, Z., Minor, W. Meth. Enzymol. 276:307–326, 1997). The crystals contain one Pin1-peptide complex per asymmetric unit and belong to space group P212121 (a=35.27 Å, b=43.90 Å, c=124.66 Å, α=β=γ=90°). The final data set with an overall R merge of 6.2% (R merge=33.7% in the highest resolution shell) is 97.3% complete (98.2% in the highest resolution shell) for the resolution range of 62.02 Å to 1.84 Å. The structure of the Pin1-YpSPTpSPS repeat complex was solved by molecular replacement with AMORE (Navaza, J. Acta Crystallogr. A 50:157–163, 1994) using the Pin1 monomer as a starting model (Ranganathan et al., Cell 89:875–886, 1997). The resulting model was then positionally refined against all the data between 62.02 Å and 1.84 Å using the default bulk solvent model in CNS with maximum likelihood targets (Brunger et al., Acta Crystallogr. D 54:905–921, 1998). After refining the rebuilt model, water molecules were added automatically using CNS and edited manually in O. The final positional refinement converged to a crystallographic R factor of 24% (R free=27%) for all data (17107 reflections) between 62.02 Å and 1.84 Å. This model consists of residues 1 to 38 and 51 to 163 of human Pin1, the entire phosphopeptide, and 151 water molecules. Model quality was checked with PROCHECK (Laskowski et al., J. Appl. Crystallogr. 26:283–291, 1993). A total of 91.7% of the residues are in the most favored regions of the Ramachandran plot, 6.8% in the additional allowed region, and 0.8% in the generously allowed region. Glu-5 borders the generously allowed region.
Binding Analysis. […] These peptides were derived from proteins previously shown to interact with Pin1. While the set of peptides examined is limited, a consensus emerges from comparison of the highest affinity interactions. Lyophilized peptides were dissolved in 25 mM HEPES-Na^+ (pH 7.5), 100 mM NaCl, 1 mM DTT and stored for short periods of time at −20° C. […] Fluorescence data were collected on a PTI Alphascan spectrofluorimeter (Photon Technology Instruments, Santa Clara, Calif.). Dissociation equilibrium constants for Pin1-peptide complexes were determined by measuring the change in fluorescence anisotropy of a set of peptide solutions at constant concentration of peptide each of which contained varied concentrations of Pin1 using the procedure described previously (Vinson et al., Biochemistry 37:10871–10880, 1998). The core binding element determined from this group of peptides is PXpSP, where X cannot be Gly. […]

[2] = biological target: T2, Pin1 WW domain (Homo sapiens, UniProt Q13526); experiment: Fluorescence anisotropy binding of rhodamine-labeled peptides to isolated Pin1 WW domain
T2 construct: The WW domain of Pin1 includes residues 1 to 39
Experimental: (§1) Protein purification and crystallography. His8-tagged Pin1 was expressed and purified by Ni^+2-chelation chromatography, the histidine tag was removed by thrombin digestion, and the protein purified as described in Ranganathan et al., Cell 89:875–886, 1997. All site-directed mutants were constructed using the QuikChange (Stratagene) protocol and purified like wild type Pin1. Crystals of the Pin1-YpSPTpSPS complex were grown in hanging drops at 4° C. by mixing 1.0 μl of the Pin1-peptide complex with 1.0 μl of a reservoir solution containing 100 mM MOPSO-Na^+ (pH 7.0), 28% (v/v) PEG 8000, 2 mM DTT, stabilized in 100 mM MOPSO-Na^+ (pH 7.0), 25% (v/v) PEG 8000, 20% (v/v) glycerol, 1 mM DTT, and rapidly frozen in a 100 K stream of nitrogen gas. […]
(§2) Binding Analysis. […] Fluorescence data were collected on a PTI Alphascan spectrofluorimeter (Photon Technology Instruments, Santa Clara, Calif.). Dissociation equilibrium constants for Pin1-peptide complexes were determined by measuring the change in fluorescence anisotropy of a set of peptide solutions at constant concentration of peptide each of which contained varied concentrations of Pin1 using the procedure described previously (Vinson et al., Biochemistry 37:10871–10880, 1998). The core binding element determined from this group of peptides is PXpSP, where X cannot be Gly. […]

[3] = biological target: T3, Pin1 (Homo sapiens, UniProt Q13526); experiment: Fluorescence anisotropy binding of rhodamine-labeled peptides to full length Pin1; conditions: errors are deviations from theoretical binding isotherms
T3 construct: His8 (cleaved yes); made in house; host or cells: E. coli
Experimental: as §1, §2

T1 sequence (Q13526 50-163): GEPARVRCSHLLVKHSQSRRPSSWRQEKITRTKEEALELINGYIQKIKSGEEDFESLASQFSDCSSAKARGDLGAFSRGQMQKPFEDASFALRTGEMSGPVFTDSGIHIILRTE
T2 sequence (Q13526 1-39 limits assumed): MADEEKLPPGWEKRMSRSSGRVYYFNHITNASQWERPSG
T3 sequence (Q13526 whole entry): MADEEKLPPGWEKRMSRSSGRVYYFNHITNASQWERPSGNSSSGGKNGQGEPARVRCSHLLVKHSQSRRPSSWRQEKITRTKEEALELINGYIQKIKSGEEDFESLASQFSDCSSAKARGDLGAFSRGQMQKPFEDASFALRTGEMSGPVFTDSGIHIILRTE

| Compound | Dissociation equilibrium constants for Pin1-peptide complexes, PPIase [1] | Dissociation equilibrium constants for Pin1-peptide complexes, WW [2] | Dissociation equilibrium constants for Pin1-peptide complexes, Pin1 [3] |
| --- | --- | --- | --- |
| C[C@H](NC(=O)[C@@H]1CCCN1C(=O)[C@@H]1CCCN1C(=S)Nc1ccc2c(c1)C(=O)OC21c2ccc(N(C)C)cc2Oc2cc(N(C)C)ccc21)C(=O)N[C@H](C(=O)N1CCC[C@H]1C(=O)N1CCC[C@H]1C(=O)O)[C@@H](C)OP(=O)(O)O [PPApTPP (Myt1-T412), PPApTPP] (X1-PPA[pT]PP-OH) | n.b. |  |  |
| CN(C)c1ccc2c(c1)Oc1cc(N(C)C)ccc1C21OC(=O)c2cc(NC(=S)N3CCC[C@H]3C(=O)N3CCC[C@H]3C(=O)NCC(=O)N[C@@H](COP(=O)(O)O)C(=O)N3CCC[C@H]3C(=O)N3CCC[C@H]3C(=O)O)ccc21 [PPGpSPP (Myt1-S416), PPGpSPP] (X1-PPG[pS]PP-OH) | n.b. |  |  |
| C[C@@H](O)[C@H](NC(=O)[C@H](CO)NC(=S)Nc1ccc2c(c1)C(=O)OC21c2ccc(N(C)C)cc2Oc2cc(N(C)C)ccc21)C(=O)N[C@@H](CO)C(=O)N[C@H](C(=O)N1CCC[C@H]1C(=O)N[C@@H](CCCNC(=N)N)C(=O)O)[C@@H](C)OP(=O)(O)O [STSpTPR (Myt1-T455), STSpTPR] (X1-STS[pT]PR-OH) | n.b. |  |  |

Second part, the compound after the results:

| Dissociation equilibrium constants for Pin1-peptide complexes, PPIase [1] | Dissociation equilibrium constants for Pin1-peptide complexes, WW [2] | Dissociation equilibrium constants for Pin1-peptide complexes, Pin1 [3] | Compound |
| --- | --- | --- | --- |
| n.b. |  |  | CC(C)[C@H](NC(=O)[C@@H]1CCCN1C(=O)[C@@H](NC(=O)[C@H](CCCNC(=N)N)NC(=O)[C@@H]1CCCN1C(=O)[C@@H](NC(=S)Nc1ccc2c(c1)C(=O)OC21c2ccc(N(C)C)cc2Oc2cc(N(C)C)ccc21)C(C)C)[C@@H](C)OP(=O)(O)O)C(=O)O [VPRpTPV (Cdc25c-T48), VPRpTPV] (X1-VPR[pT]PV-OH) |
| n.b. | n.b. | n.b. | YSPTSPS [YSPTSPS (CTD), unphosphorylated heptad repeat of the C-terminal domain of RNA Polymerase II, rhodamine-labeled] |
